According to US8980874B2, “Method and composition for treating diabetic ketoacidosis” (Midwestern University, priority 2009, dated 2015):
“Also recorded” adds a separate entry of the source. Non-standard residues stand in square brackets, D forms with d. Residues, ends and D or L forms follow the SMILES beside them.

Key:
Assay type in all cases: in vivo
rat model of DKA [1] = experiment: Arterial blood gases, electrolytes, lactate and hematocrit in diabetic ketoacidosis rats
Source text: Arterial blood pH, pO2, pCO2, Na^+, K^+, lactate, and hematocrit were monitored prior to, at one hour, and at the end of treatment. Blood samples were drawn from the arterial cannula using blood gas sampling syringes (Innovative Medical Technologies, Inc. Leawood, Kans.) and analyzed using a GEM Premier 3000 unit (Instrument Laboratory, Lexington, Mass.). Blood samples were withdrawn from the femoral artery for baseline reading prior to start of treatment, after the first hour of treatment, and then at the end of the treatment (fifth hour of experiment).
(§1) Group 4: Diabetic saline/insulin treated (D-Saline+insulin treated): Rats were injected with streptozotocin in citrate buffer (150 mg/kg ip) to induce diabetes and ketoacidosis. On day three, rats were treated with 1.5 U/kg regular insulin (Humulin® R (Regular human insulin, rDNA origin). On day four, saline and insulin treatment was carried out. Rats were infused via cannulated femoral vein saline, 0.9% NaCl at 80 mL/kg/hr and 1.5 U/kg/hr regular insulin for one hour. During the next two through four hours, rats were infused with saline, 0.9% NaCl at 40 mL/kg/hr and 1.5 U/kg/hr regular insulin (Yuen et al., 2008).
(§2) Group 5: Diabetic BMS-182874/saline/insulin treated (D-BMS+Saline+insulin treated): Rats were injected with streptozotocin in citrate buffer (150 mg/kg ip) to induce diabetes and ketoacidosis. On day three, rats were treated with 1.5 U/kg regular insulin. On day four, rats were administered a bolus dose of selective ETA receptor antagonist, BMS-182874 (9 mg/kg), then saline and insulin treatment was carried out. Rats were infused via cannulated femoral vein saline, 0.9% NaCl at 80 mL/kg/hr and 1.5 U/kg/hr regular insulin for one hour. During the next two through four hours rats were infused with saline, 0.9% NaCl at 40 mL/kg/hr and 1.5 U/kg/hr regular insulin.
(§3) Group 6: Diabetic BQ123/saline/insulin treated (D-BQ+saline+insulin treated): Same as above for Group 5, except BQ123 (1 mg/kg body weight) is used as a substitute for BMS-182874 (9 mg/kg).
(§4) Data are presented as mean±SEM. The significance of differences was estimated by one-way analysis of variance (intra group comparison with respect to base line data) and two-way analysis of variance (inter group comparison with respect to corresponding time points from each groups) followed by application of the Dunnett's Multiple Comparisons and Bonferroni test respectively. A P value of less than 0.05 was considered to be significant. The statistical analysis was processed with GraphPad Prism software Version 5.00.

rat model of DKA [2] = experiment: Brain blood perfusion (Laser Doppler Flowmetry) in diabetic ketoacidosis rats; conditions: day 4, FIG. 6, antagonist given with saline+insulin, result in words
Procedure: A burr hole was drilled into the rat skull approximately 2 millimeters (mm) to the left of midline, being careful not to disturb the brain tissue itself. Cerebrovascular perfusion was measured via a fiber optic probe (PF407) applied to the surface of the rat brain. The probe was connected to a Periflux PF2b 4000 Laser Doppler Flowmetry unit (Perimed, Stockholm, Sweden). The perfusion was determined by measuring the passage of red blood cells through the capillaries.
as §1, §2, §3, §4

rat model of DKA [3] = experiment: Cardiovascular parameters (MAP, pulse pressure, heart rate) in diabetic ketoacidosis rats; conditions: result in words
Source text: Rats were anaesthetized with urethane (1.5 g/kg ip.) and prepared for the determination of hemodynamic parameters (Gulati et al., 1997a; Gulati et al., 1997b). The anesthetized rats were shaved and immobilized to prepare for cannulation. A 2-3 centimeter (cm) incision was made above the femoral vein and artery and the vessels were dissected and cleaned. The left femoral vein was cannulated (PE-50 tubing, Clay Adams, Parsipanny, N.J.) and secured for drug administration. An ultra-miniature pressure transducer SPR-320 (2F Polyurethane), with a single pressure sensor side mounted at the tip (Millar Instruments, Houston, Tex.) was inserted in the left femoral artery to acquire the hemodynamic signals. Pressure transducer was connected to bridge amplifier (ML221 Bridge Amp; AD Instruments, Mountain View, Calif., USA) with Viking connector (AEC-10C) and the signals were continuously acquired at a sampling rate of 1000 S^−1 using Millar PowerLab 16/30 data acquisition system (AD Instruments, Mountain View, Calif., USA). Mean arterial pressure (MAP), heart rate (HR), and pulse pressure (PP) were determined and analyzed with LabChart-5.00 software program (Millar Instruments). After the experiment was completed, the animals were euthanized with a high dose of urethane (3 gm/kg).
as §1, §2, §3, §4

rat model of DKA [4] = experiment: Blood glucose in streptozotocin-induced diabetic ketoacidosis rats
Procedure: (§5) Normotensive Sprague Dawley rats were kept on fasting for 2 hours with unlimited access to water. After 2 hours of fasting, rats were injected intraperitoneally with 150 mg/kg of streptozotocin in 0.05 mol/L citric acid, pH 4.3 to induced diabetes (Lam et al., 2005; Yuen et al., 2008), while non-diabetic control rats received an intraperitoneal injection of 0.05 mol/L citrate buffer (Lam et al., 2005; Yuen et al., 2008). Rats were allowed unlimited access to tap water and food. Each day rats were weighed and urine ketone levels were estimated by Urine Reagent Strips, 1K Parameter. Prior to streptozotocin or citrate buffer injection, baseline blood glucose levels were assessed by One Touch Ultra blood glucose strips from Lifescan, Milpitas, Calif., and baseline blood ketone levels were estimated using Cardiochek blood ketone analyzer. Blood glucose and ketone were measured again on day three and four to ensure the onset of hyperglycemia and ketoacidosis. […] Blood samples were withdrawn from the femoral […] for baseline reading prior to start of treatment, after the first hour of treatment, and then at the end of the treatment (fifth hour of experiment).
(§6) The animals were allowed to stabilize for at least 20 minutes following surgical procedures. Body weight, blood glucose, urinary ketone, blood ketone, arterial blood gases, blood electrolytes, mean arterial pressure, pulse pressure, heart rate, brain blood perfusion, brain and lung water content were determined in the following groups
as §1, §2, §3, §4

rat model of DKA [5] = experiment: Blood ketone levels in diabetic ketoacidosis rats
Procedure: as §5, §6, §1, §2, §3, §4

[6] = day 4, compared to diabetic untreated rats, result in words
[7] = saline+insulin, alone or after bolus BMS-182874 9 mg/kg or BQ123 1 mg/kg
[8] = saline+insulin, alone or after bolus BMS-182874 9 mg/kg or BQ123 1 mg/kg, instrument floor 6.80

Compound: CC(C)C[C@@H]1NC(=O)[C@@H](C(C)C)NC(=O)[C@@H]2CCCN2C(=O)[C@@H](CC(=O)O)NC(=O)[C@@H](Cc2c[nH]c3ccccc23)NC1=O [BQ123, Cyclo(D-Trp-D-Asp-Pro-D-Val-Leu)] (cyclo(L[dW][dD]P[dV]))
- arterial blood pH, Day 4 (pre-tx) (rat model of DKA [1]; baseline, instrument could not record pH below 6.80, mean±SEM): 6.82 ± 0.02
- arterial blood pCO2, Day 4 (pre-tx) (rat model of DKA [1]; baseline, mean±SEM): 25.00 ± 3.7 mmHg
- arterial blood pO2, Day 4 (pre-tx) (rat model of DKA [1]; baseline, mean±SEM): 130.2 ± 14.04 mmHg
- blood K+ level, Day 4 (pre-tx) (rat model of DKA [1]; baseline, mean±SEM): 3.4 ± 0.45 mmol/L
- blood Na+ level, Day 4 (pre-tx) (rat model of DKA [1]; baseline, mean±SEM): 140.00 ± 2.87 mmol/L
- blood hematocrit (Hct), Day 4 (pre-tx) (rat model of DKA [1]; baseline, mean±SEM): 42.6 ± 4.81%
- effect of treatment on arterial blood pH (acidosis) (rat model of DKA [1]; day 4, antagonist given with saline+insulin, result in words): produced a significant improvement in arterial blood pH
- effect of treatment on blood K+ levels (rat model of DKA [1]; [6]): significantly reduced the change in blood K^+ levels
- effect of treatment on blood lactate levels (rat model of DKA [1]; [6]): significantly reduced the change in blood lactate levels
- effect of treatment on hematocrit (rat model of DKA [1]; [6]): significantly reduced the hematocrit
- arterial blood pCO2, Day 4 (1 hour of tx) (rat model of DKA [1]; [7]): 23.6 ± 2.17 mmHg
- arterial blood pCO2, Day 4 (end of tx) (rat model of DKA [1]; [7]): 23.2 ± 1.95 mmHg
- arterial blood pO2, Day 4 (1 hour of tx) (rat model of DKA [1]; [7]): 128.4 ± 11.006 mmHg
- arterial blood pO2, Day 4 (end of tx) (rat model of DKA [1]; [7]): 141.2 ± 4.6 mmHg
- blood K+ level, Day 4 (1 hour tx) (rat model of DKA [1]; [7]): 2.04 ± 0.29 mmol/L
- blood K+ level, Day 4 (end of tx) (rat model of DKA [1]; [7]): 2.38 ± 0.34 mmol/L
- blood Na+ level, Day 4 (1 hour of tx) (rat model of DKA [1]; [7]): 147 ± 1.3 mmol/L
- blood Na+ level, Day 4 (end of tx) (rat model of DKA [1]; [7]): 150.04 ± 2.43 mmol/L
- blood hematocrit (Hct), Day 4 (1 hour of tx) (rat model of DKA [1]; [7]): 31.4 ± 2.97 %
- blood hematocrit (Hct), Day 4 (end of tx) (rat model of DKA [1]; [7]): 31.8 ± 2.21 %
- arterial blood pH, Day 4 (1 hour of tx) (rat model of DKA [1]; [8]): 6.81 ± 0.01
- arterial blood pH, Day 4 (end of tx) (rat model of DKA [1]; [8]): 6.91 ± 0.01
- effect on cerebral blood perfusion (rat model of DKA [2]): significantly blocked; also recorded: prevented an insulin induced increase in cerebral blood perfusion
- effect on mean arterial pressure (rat model of DKA [3]; day 4, FIG. 3, antagonist given with saline+insulin): stabilized the arterial pressure
- effect on heart rate (rat model of DKA [3]; day 4, FIG. 5, antagonist given with saline+insulin): did not produce any decrease in heart rate compared to baseline
- blood glucose, Day 4 (pre-tx) (rat model of DKA [4]; baseline before treatment on day 4, mean±SEM): 484 ± 17 mg/dL
- effect of treatment on blood glucose (rat model of DKA [4]; day 4, result in words): did not significantly affect blood glucose
- blood glucose, Day 4 (end of tx) (rat model of DKA [4]; saline+insulin infusion, alone or after bolus BMS-182874 9 mg/kg or BQ123 1 mg/kg, fifth hour, mean±SEM): 312 ± 55 mg/dL
- blood glucose, Day 4 (1 hour of tx) (rat model of DKA [4]; saline+insulin infusion, alone or after bolus BMS-182874 9 mg/kg or BQ123 1 mg/kg, mean±SEM): 462 ± 55 mg/dL
- blood ketone levels, Day (pre tx) (rat model of DKA [5]; baseline before treatment, mean±SEM): 28.22 ± 3.14 mg/dL
- effect of treatment on blood ketones (rat model of DKA [5]; day 4, result in words (Table 2, FIG. 2)): particularly marked decrease in blood ketones; also recorded: significantly decrease the blood ketones
- blood ketone levels, Day 4 (end of tx) (rat model of DKA [5]; saline+insulin, alone or after bolus BMS-182874 9 mg/kg or BQ123 1 mg/kg, mean±SEM): 5.2 ± 0.36 mg/dL
